# Results reported in ChEMBL document CHEMBL1201862, “PubChem BioAssay data set” (2004).
#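 Protocol summary: plate cells (96-well), add compound at 5 concentrations, incubate 48 h, interpolate endpoints linearly. Here, GI50 denotes the concentration required for 50% inhibition of growth.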 Active and inactive are the calls of the source. Rule as the data show it: active = GI50 up to about 1.1 µM and inactive = higher.
# Assays:
# Assay in all cases: inhibition of tumour cell growth, NCI panel, 48 h
# 786-0 = test system: 786-0
# A498 = test system: A498
# A549 = test system: A549
# ACHN = test system: ACHN
# BT-549 = test system: BT-549
# CAKI-1 = test system: CAKI-1
# CCRF-CEM = test system: CCRF-CEM
# COLO 205 = test system: COLO 205
# DU-145 = test system: DU-145
# HCT-116 = test system: HCT-116
# HCT-15 = test system: HCT-15
# HL-60 = test system: HL-60
# HOP-62 = test system: HOP-62
# HT-29 = test system: HT-29
# Hs-578T = test system: Hs-578T
# IGROV-1 = test system: IGROV-1
# K562 = test system: K562
# KM12 = test system: KM12
# LOX IMVI = test system: LOX IMVI
# M14 = test system: M14
# MCF7 = test system: MCF7
# MDA-MB-231 = test system: MDA-MB-231
# MDA-MB-435 = test system: MDA-MB-435
# MDA-N = test system: MDA-N
# MOLT-4 = test system: MOLT-4
# NCI-H23 = test system: NCI-H23
# NCI-H460 = test system: NCI-H460
# NCI/ADR-RES = test system: NCI/ADR-RES
# OVCAR-3 = test system: OVCAR-3
# OVCAR-5 = test system: OVCAR-5
# OVCAR-8 = test system: OVCAR-8
# PC-3 = test system: PC-3
# RPMI-8226 = test system: RPMI-8226
# SF-268 = test system: SF-268
# SF-295 = test system: SF-295
# SF-539 = test system: SF-539
# SK-MEL-2 = test system: SK-MEL-2
# SK-MEL-5 = test system: SK-MEL-5
# SK-OV-3 = test system: SK-OV-3
# SN12C = test system: SN12C
# SNB-19 = test system: SNB-19
# SR = test system: SR
# SW-620 = test system: SW-620
# U-251 = test system: U-251
# UACC-257 = test system: UACC-257
# UACC-62 = test system: UACC-62
# UO-31 = test system: UO-31
# EKVX = test system: EKVX
# HCC 2998 = test system: HCC 2998
# HOP-92 = test system: HOP-92
# Malme-3M = test system: Malme-3M
# NCI-H226 = test system: NCI-H226
# NCI-H522 = test system: NCI-H522
# OVCAR-4 = test system: OVCAR-4
# RXF 393 = test system: RXF 393
# SK-MEL-28 = test system: SK-MEL-28
# SNB-75 = test system: SNB-75
# TK-10 = test system: TK-10
smiles,measurement,setting,value
C[C@H]1[C@H](C)CC[C@]2(C)CC[C@]3(C)C(=C[C@@H](O)[C@@H]4[C@@]5(C)[C@H](O)[C@@H](O)[C@H](O)C(C)(C)[C@@H]5CC[C@]43C)[C@H]12,GI50,786-0,> 100 µM (inactive)
same,GI50,A498,> 100 µM (inactive)
same,GI50,A549,> 100 µM (inactive)
same,GI50,ACHN,> 100 µM (inactive)
same,GI50,BT-549,> 100 µM (inactive)
same,GI50,CAKI-1,> 100 µM (inactive)
same,GI50,CCRF-CEM,> 100 µM (inactive)
same,GI50,COLO 205,> 100 µM (inactive)
same,GI50,DU-145,> 100 µM (inactive)
same,GI50,HCT-116,> 100 µM (inactive)
same,GI50,HCT-15,> 100 µM
same,GI50,HL-60,> 100 µM (inactive)
same,GI50,HOP-62,> 100 µM (inactive)
same,GI50,HT-29,> 100 µM (inactive)
same,GI50,Hs-578T,> 100 µM (inactive)
same,GI50,IGROV-1,67.8 µM (inactive)
same,GI50,K562,> 100 µM (inactive)
same,GI50,KM12,96.2 µM (inactive)
same,GI50,LOX IMVI,> 100 µM (inactive)
same,GI50,M14,> 100 µM (inactive)
same,GI50,MCF7,> 100 µM (inactive)
same,GI50,MDA-MB-231,> 100 µM (inactive)
same,GI50,MDA-MB-435,> 100 µM (inactive)
same,GI50,MDA-N,> 100 µM (inactive)
same,GI50,MOLT-4,82.4 µM (inactive)
same,GI50,NCI-H23,> 100 µM (inactive)
same,GI50,NCI-H460,> 100 µM (inactive)
same,GI50,NCI/ADR-RES,> 100 µM (inactive)
same,GI50,OVCAR-3,77.1 µM (inactive)
same,GI50,OVCAR-5,> 100 µM (inactive)
same,GI50,OVCAR-8,> 100 µM (inactive)
same,GI50,PC-3,> 100 µM (inactive)
same,GI50,RPMI-8226,55.6 µM (inactive)
same,GI50,SF-268,> 100 µM (inactive)
same,GI50,SF-295,> 100 µM (inactive)
same,GI50,SF-539,> 100 µM (inactive)
same,GI50,SK-MEL-2,> 100 µM (inactive)
same,GI50,SK-MEL-5,> 100 µM (inactive)
same,GI50,SK-OV-3,> 100 µM (inactive)
same,GI50,SN12C,> 100 µM (inactive)
same,GI50,SNB-19,> 100 µM (inactive)
same,GI50,SR,> 100 µM (inactive)
same,GI50,SW-620,> 100 µM (inactive)
same,GI50,U-251,> 100 µM (inactive)
same,GI50,UACC-257,> 100 µM (inactive)
same,GI50,UACC-62,> 100 µM (inactive)
same,GI50,UO-31,> 100 µM (inactive)
Cc1cccc2c1c(=O)c1c(O)cc(O)cc1n2C,GI50,786-0,> 100 µM (inactive)
same,GI50,A498,59 µM (inactive)
same,GI50,A549,> 100 µM (inactive)
same,GI50,ACHN,> 100 µM (inactive)
same,GI50,BT-549,> 100 µM (inactive)
same,GI50,CAKI-1,> 100 µM (inactive)
same,GI50,CCRF-CEM,> 100 µM (inactive)
same,GI50,COLO 205,30 µM (inactive)
same,GI50,DU-145,> 100 µM (inactive)
same,GI50,EKVX,85.1 µM (inactive)
same,GI50,HCC 2998,> 100 µM (inactive)
same,GI50,HCT-116,78.3 µM (inactive)
same,GI50,HCT-15,> 100 µM
same,GI50,HL-60,> 100 µM (inactive)
same,GI50,HOP-62,> 100 µM (inactive)
same,GI50,HOP-92,92.9 µM (inactive)
same,GI50,HT-29,72.3 µM (inactive)
same,GI50,Hs-578T,33.8 µM (inactive)
same,GI50,IGROV-1,> 100 µM (inactive)
same,GI50,K562,80.5 µM (inactive)
same,GI50,KM12,> 100 µM (inactive)
same,GI50,LOX IMVI,82 µM (inactive)
same,GI50,M14,55 µM (inactive)
same,GI50,MCF7,> 100 µM (inactive)
same,GI50,MDA-MB-231,> 100 µM (inactive)
same,GI50,MDA-MB-435,> 100 µM (inactive)
same,GI50,MDA-N,> 100 µM (inactive)
same,GI50,MOLT-4,70.5 µM (inactive)
same,GI50,Malme-3M,> 100 µM (inactive)
same,GI50,NCI-H226,> 100 µM (inactive)
same,GI50,NCI-H23,> 100 µM (inactive)
same,GI50,NCI-H460,> 100 µM (inactive)
same,GI50,NCI-H522,97.7 µM (inactive)
same,GI50,NCI/ADR-RES,> 100 µM (inactive)
same,GI50,OVCAR-3,> 100 µM (inactive)
same,GI50,OVCAR-4,> 100 µM (inactive)
same,GI50,OVCAR-5,> 100 µM (inactive)
same,GI50,OVCAR-8,> 100 µM (inactive)
same,GI50,PC-3,> 100 µM (inactive)
same,GI50,RPMI-8226,> 100 µM (inactive)
same,GI50,RXF 393,59.8 µM (inactive)
same,GI50,SF-268,> 100 µM (inactive)
same,GI50,SF-295,89.1 µM (inactive)
same,GI50,SF-539,> 100 µM (inactive)
same,GI50,SK-MEL-28,> 100 µM (inactive)
same,GI50,SK-MEL-2,> 100 µM (inactive)
same,GI50,SK-MEL-5,34.2 µM (inactive)
same,GI50,SK-OV-3,66.1 µM (inactive)
same,GI50,SN12C,> 100 µM (inactive)
same,GI50,SNB-19,> 100 µM (inactive)
same,GI50,SNB-75,39.4 µM (inactive)
same,GI50,SR,> 100 µM (inactive)
same,GI50,SW-620,> 100 µM (inactive)
same,GI50,TK-10,> 100 µM (inactive)
same,GI50,U-251,> 100 µM (inactive)
same,GI50,UACC-257,> 100 µM (inactive)
same,GI50,UACC-62,90.6 µM (inactive)
